Test results: patent EP4603105A1, “PHARMACEUTICAL COMPOSITION CONTAINING CYCLIC COMPOUND HAVING SELECTIVE KRAS INHIBITORY EFFECT AGAINST HRAS AND NRAS” (CHUGAI SEIYAKU KABUSHIKI KAISHA, priority 2022, dated 2024)
*1 amine or outer side, *2 acyl side, *3 side chain or, on linkers, in order; H or OH if unused. Where a SMILES comes first, the peptide text is derived from it. Bridges are numbered along the chain shown (N, C = ends). [ ]: non-standard residue; d: D form. The star is where a group is joined. hPhe(3,5-F2-4-CF3) = N[C@@H](CCc1cc(F)c(C(F)(F)F)c(F)c1)C(=O)O; hPhe(3-Cl-4-CF3) = N[C@@H](CCc1ccc(C(F)(F)F)c(Cl)c1)C(=O)O; NPrPhe(4-CF3) = CCCN[C@@H](Cc1ccc(C(F)(F)F)cc1)C(=O)O; NEtPhe(4-Me) = CCN[C@@H](Cc1ccc(C)cc1)C(=O)O; NMeAbu(4,4,4-F3) = CN[C@@H](CC(F)(F)F)C(=O)O; dαMeAlg = C[C@](CC=[*:3])(N[*:1])C(=O)[*:2]; NMeGly(cPent) = CN[C@H](C(=O)O)C1CCCC1; NMeSer(allyl) = C=CCOC[C@H](NC)C(=O)O; Hyp = O=C(O)[C@@H]1C[C@@H](O)CN1; NMeD = CN[C@@H](CC(=O)O)C(=O)O; Morpholide = C1CN(*)CCO1; Ac5c = NC1(C(=O)O)CCCC1; Sar = CNCC(=O)O

Key:
HRAS wild-type protein = HRAS wild-type protein (Homo sapiens, UniProt P01112); assay: Binding to HRAS by surface plasmon resonance (SPR), KD and KD ratio to KRAS
Outline: (§1)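 Single-cycle kinetics on GDP-loaded biotin-Avi RAS captured to ~100–300 RU; 75 s ascending injections, 100 µL/min, 30°C. HBS pH 7.4 + 10 mM MgCl2/10 µM GDP/4% DMSO. 1:1 fit, KD.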

[1] = tested on: human lung cancer strain NCI-H441; type: cell-based
Outline: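 Proliferation was scored by […] measured after the reagent was added to cultures kept at 37°C in 5% carbon dioxide.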

[2] = target: GDP-bound NRAS wild-type protein (Homo sapiens, UniProt P01111); assay: Binding to NRAS by surface plasmon resonance (SPR), KD and KD ratio to KRAS
Outline: as §1

[3] = ratio of the KD value with respect to HRAS wild-type protein to the KD value with respect to KRAS
[4] = ratio of the KD value with respect to GDP-bound NRAS wild-type protein to the KD value with respect to KRAS
[5] = ratio of KD for HRAS wild-type protein to KD for KRAS
[6] = ratio of KD for GDP-bound NRAS wild-type protein to KD for KRAS
[7] = ratio of KD value for HRAS wild-type protein to KD value for KRAS (SPR)
[8] = ratio of KD value for GDP-bound NRAS wild-type protein to KD value for KRAS (SPR)

Chain of HRAS wild-type protein (P01112 whole entry): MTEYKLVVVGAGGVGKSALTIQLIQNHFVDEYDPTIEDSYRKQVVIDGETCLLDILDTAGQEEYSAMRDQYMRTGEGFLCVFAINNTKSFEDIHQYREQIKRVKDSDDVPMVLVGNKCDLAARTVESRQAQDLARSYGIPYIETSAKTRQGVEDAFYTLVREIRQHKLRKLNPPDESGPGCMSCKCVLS
Chain of GDP-bound NRAS wild-type protein (P01111 whole entry): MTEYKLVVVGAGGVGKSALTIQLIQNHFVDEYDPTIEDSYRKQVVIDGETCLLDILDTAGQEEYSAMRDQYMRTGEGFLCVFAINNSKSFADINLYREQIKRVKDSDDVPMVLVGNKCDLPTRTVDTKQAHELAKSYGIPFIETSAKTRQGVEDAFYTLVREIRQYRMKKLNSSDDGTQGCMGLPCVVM

Compound	IC50 [1]	HRAS /KRAS (HRAS wild-type protein; [3])	NRAS /KRAS [2, 4]	HRAS /KRAS (HRAS wild-type protein; [5])	NRAS /KRAS [2, 6]	HRAS /KRAS (HRAS wild-type protein; [7])	NRAS /KRAS [2, 8]
CC[C@H](C)[C@@H]1NC(=O)[C@H](CC(C)C)N(C)C(=O)C[C@@H](C(=O)N2CCOCC2)N(C)C(=O)[C@H](C2CCCC2)N(C)C(=O)C2(CCCC2)NC(=O)[C@@H]2[C@@H](O)CCN2C(=O)[C@H](CCc2cc(F)c(C(F)(F)F)c(F)c2)NC(=O)CN(C)C(=O)[C@H](Cc2ccc(C(F)(F)F)cc2)N2CCCCC[C@@H](C2=O)N(C)C(=O)CN(C)C1=O [PP0662]	1570 nM	B (a compound having 3 or more and less than 10 is denoted as B)	B (a compound having 3 or more and less than 10 is denoted as B)	–	–	–	–
CC[C@H](C)[C@@H]1NC(=O)[C@H](CC(F)(F)F)N(C)C(=O)C[C@@H](C(=O)N2CCOCC2)N(C)C(=O)[C@H](C2CCCC2)N(C)C(=O)C2(CCCC2)NC(=O)[C@@H]2CCCN2C(=O)[C@H](CCc2ccc(C(F)(F)F)c(Cl)c2)NC(=O)CN(C)C(=O)[C@H](Cc2ccc(C)cc2)N(CC)C(=O)CN(C)C(=O)CN(C)C1=O [PP0032] ([NMeAbu(4,4,4-F3)]I[Sar][Sar][NEtPhe(4-Me)][Sar][hPhe(3-Cl-4-CF3)]P[Ac5c][NMeGly(cPent)][NMeD]-Morpholide; lactam N-11)	26.9 nM	–	–	C (A compound having a KD ratio of 0.1 or more and less than 3 is denoted as C)	C (A compound having a KD ratio of 0.1 or more and less than 3 is denoted as C)	–	–
CCO[C@@H]1C[C@H]2C(=O)NC3(CCC3)C(=O)N(C)[C@@H](C3CCCC3)C(=O)N(C)[C@H](C(=O)N(C)C)CC(=O)N(C)[C@@H](CC3CCC3)C(=O)N[C@@H]([C@@H](C)CC)C(=O)N(C)CC(=O)N(C)[C@H]3CCCCCN(C3=O)[C@@H](Cc3ccc(C(F)(F)F)cc3)C(=O)N(C)CC(=O)N[C@@H](CCc3cc(F)c(C(F)(F)F)c(F)c3)C(=O)N2C1 [PP0668]	22.7 nM	B (a compound having 3 or more and less than 10 is denoted as B)	B (a compound having 3 or more and less than 10 is denoted as B)	–	–	–	–
CC[C@H](C)[C@@H]1NC(=O)[C@H](CC(C)C)N(C)C(=O)C[C@@H](C(=O)N(C)C)N(C)C(=O)[C@H](C2CCCC2)N(C)C(=O)C2(CCC2)NC(=O)[C@@H]2[C@@H](OCC(F)F)CCN2C(=O)[C@H](CCc2cc(F)c(C(F)(F)F)c(F)c2)NC(=O)CN(C)C(=O)[C@H](Cc2ccc(C(F)(F)F)cc2)N2CC/C=C\C[C@@H](C2=O)N(C)C(=O)CN(C)C1=O [PP1534]	24.7 nM	–	–	–	–	A (a compound having 10 or more and less than 20 is denoted as A)	AA (a compound having 20 or more is denoted as AA)
CCCN1C(=O)CN(C)C(=O)CN(C)C(=O)[C@H]([C@@H](C)CC)NC(=O)[C@@H]2COCC=CC[C@@](C)(NC(=O)[C@@H]3C[C@@H](OCC)CN3C(=O)[C@H](CCc3cc(F)c(C(F)(F)F)c(F)c3)NC(=O)CN(C)C(=O)[C@@H]1Cc1ccc(C(F)(F)F)cc1)C(=O)N(C)[C@@H](C1CCCC1)C(=O)N(C)[C@H](C(=O)N1CCOCC1)CC(=O)N2C [PP0903] ([NMeSer(allyl)]I[Sar][Sar][NPrPhe(4-CF3)][Sar][hPhe(3,5-F2-4-CF3)][Hyp](Et)[dαMeAlg][NMeGly(cPent)][NMeD]-Morpholide; staple 1-9; lactam N-11)	596 nM	–	–	C (A compound having a KD ratio of 0.1 or more and less than 3 is denoted as C)	B (a compound having 3 or more and less than 10 is denoted as B)	–	–

Continued, in another order:

IC50 [1]	Compound	HRAS /KRAS (HRAS wild-type protein; [3])	NRAS /KRAS [2, 4]	HRAS /KRAS (HRAS wild-type protein; [5])	NRAS /KRAS [2, 6]	HRAS /KRAS (HRAS wild-type protein; [7])	NRAS /KRAS [2, 8]
9.2 nM	CCC[C@H]1C(=O)N[C@@H]([C@@H](C)CC)C(=O)N(C)CC(=O)N(C)[C@H]2C/C=C\CCN(C2=O)[C@@H](Cc2ccc(C(F)(F)F)cc2)C(=O)N(C)CC(=O)N[C@@H](CCc2cc(F)c(C(F)(F)F)c(F)c2)C(=O)N2C[C@H](OCC)C[C@H]2C(=O)NC2(CC(C)(C)C2)C(=O)N(C)[C@@H]([C@@H](C)CC)C(=O)N(C)[C@H](C(=O)N(C)C)CC(=O)N1C [PP1941]	A (a compound having 10 or more and less than 20 is denoted as A)	A (a compound having 10 or more and less than 20 is denoted as A)	–	–	–	–
16.7 nM	CCO[C@@H]1C[C@H]2C(=O)NC3(CC(C)(C)C3)C(=O)N(C)[C@@H](C3CCCC3)C(=O)N(C)[C@H](C(=O)N(CC)CC)CC(=O)N(C)[C@@H](CC)C(=O)N[C@@H]([C@@H](C)CC)C(=O)N(C)CC(=O)N(C)[C@H]3C/C=C\CCN(C3=O)[C@@H](Cc3ccc(C)cc3)C(=O)N(C)CC(=O)N[C@@H](CCc3ccc(C(F)(F)F)c(OC)c3)C(=O)N2C1 [PP1881]	–	–	–	–	A (a compound having 10 or more and less than 20 is denoted as A)	A (a compound having 10 or more and less than 20 is denoted as A)
13.3 nM	CCOC[C@H]1C(=O)N[C@@H]([C@@H](C)CC)C(=O)N(C)CC(=O)N(C)[C@H]2C/C=C\CCN(C2=O)[C@@H](Cc2ccc(C(F)(F)F)cc2)C(=O)N(C)CC(=O)N[C@@H](CCc2ccc(C(F)(F)F)c(OC)c2)C(=O)N2C[C@@H](C)C[C@H]2C(=O)NC2(CC(C)(C)C2)C(=O)N(C)[C@@H](C2CCCC2)C(=O)N(C)[C@H](C(=O)N(C)CC)CC(=O)N1C [PP1993]	A (a compound having 10 or more and less than 20 is denoted as A)	A (a compound having 10 or more and less than 20 is denoted as A)	–	–	–	–
